Laboratory results taken from patent US20050272726A1, “Novel medicaments for the treatment of respiratory diseases” (Boehringer Ingelheim International GmbH, priority 2004, published 2005).
Where a name gives a salt, the structure may show the parent alone.

| melting point | SMILES |
| --- | --- |
| 278 to 280 °C | Cc1cc(CC(C)(C)NCC(O)c2cc(O)cc3c2OCC(=O)N3)ccc1F (centres unmarked) (as salt: hydrochloride) [Example 8, 8-{2-[2-(4-Fluoro-3-methyl-phenyl)-1,1-dimethyl-ethylamino]-1-hydroxy-ethyl}-6-hydroxy-4H-benzo[1,4]oxazin-3-one] |
| 235 to 238 °C | Cc1cc(C)cc(CC(C)(C)NCC(O)c2cc(O)cc3c2OCC(=O)N3)c1 (centres unmarked) (as salt: hydrochloride) [Example 13, 8-{2-[2-(3,5-dimethyl-phenyl)-1,1-dimethyl-ethylamino]-1-hydroxy-ethyl}-6-hydroxy-4H-benzo[1,4]oxazin-3-one] |

Continued, compound first:

| SMILES | melting point |
| --- | --- |
| Cc1cc(F)ccc1CC(C)(C)NCC(O)c1cc(O)cc2c1OCC(=O)N2 (centres unmarked) (as salt: hydrochloride) [Example 9, 8-{2-[2-(4-fluoro-2-methyl-phenyl)-1,1-dimethyl-ethylamino]-1-hydroxy-ethyl}-6-hydroxy-4H-benzo[1,4]oxazin-3-one] | 278 to 280 °C |
| CC(C)(Cc1ccc(OCCCC(=O)O)cc1)NCC(O)c1cc(O)cc2c1OCC(=O)N2 (centres unmarked) [Example 14, 4-(4-{2-[2-hydroxy-2-(6-hydroxy-3-oxo-3,4-dihydro-2H-benzo[1,4]oxazin-8-yl)-ethylamino]-2-methyl-propyl}-phenoxy)-butyric acid] | 201 to 204 °C |
| CC(C)(Cc1ccc(F)cc1F)NCC(O)c1cc(O)cc2c1OCC(=O)N2 (centres unmarked) (as salt: hydrochloride) | 279 to 280 °C |
